In US8962613B2, “P2X4 receptor antagonist” (Nippon Chemiphar Co., Ltd., priority 2010, dated 2015):
Where a name gives a salt, the structure may show the parent alone. Read-outs that look alike come from different tables or passages of the source.

Biological target: T1, human P2X4 receptors (Homo sapiens, UniProt Q99571)
T1 sequence (Q99571 1-388): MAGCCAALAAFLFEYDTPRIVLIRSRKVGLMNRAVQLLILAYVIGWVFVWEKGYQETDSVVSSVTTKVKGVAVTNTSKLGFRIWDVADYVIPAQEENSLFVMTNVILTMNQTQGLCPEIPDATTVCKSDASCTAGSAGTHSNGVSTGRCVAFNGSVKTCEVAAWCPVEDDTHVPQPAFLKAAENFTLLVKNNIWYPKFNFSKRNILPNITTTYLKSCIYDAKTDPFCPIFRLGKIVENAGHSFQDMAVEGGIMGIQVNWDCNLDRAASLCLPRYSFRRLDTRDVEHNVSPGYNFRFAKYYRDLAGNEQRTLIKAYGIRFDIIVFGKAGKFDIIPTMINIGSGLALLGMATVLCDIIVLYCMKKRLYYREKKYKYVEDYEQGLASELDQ
Experiment: P2X4 receptor antagonism, intracellular calcium influx assay (Fura-2 AM, ATP-induced)
Assay type: cell-based
Details: for IC50: 1321N1 cells stably expressing human P2X4 receptors, compound added 15 min before ATP, read-out: Inhibition activities (IC50 μM)
Procedure: 1321N1 cells stably expressing human P2X4 receptors were adopted for calcium influx assay. P2X4/1321N1 cells were plated in 96-well assay plate and cultured for 24 hours in an atmosphere of 5% CO2 at 37° C. Fura-2 AM calcium indicator dissolved in an extracellular solution for calcium imaging was loaded onto cells for 45 minutes at room temperature. The fluorescence was detected by FLUOstar OPTIMA micro plate reader (BMG labtech). The cells were alternatively illuminated with two excitations wavelengths (340 nm and 380 nm) via xenon lamp and the emitted fluorescence was measured at 510 nm. The fluorescence changes after the treatment of 1 μM ATP were monitored and determined the fluorescence ratio (F340/F380) as the index of intracellular calcium change. Tested compounds were treated to cells 15 min before the addition of ATP and the inhibition activities of compounds were calculated by comparing the Ca^2+ response with control in the absence of tested compound.
P2X4 receptor antagonism of the compound of the present invention was measured as described below.
1321N1 cells stably expressing human P2X4 receptors were plated in 96-well assay plate and cultured for 24 hours at 37° C. in an atmosphere of 5% CO2 for intracellular calcium assay. Fura-2 AM calcium fluorescent indicator was used for the intracellular calcium assay. Fura-2 AM was dissolved in an assay buffer, and the solution was loaded onto cells. The obtained plate was used for fluorescent assay.
Test compounds were treated to cells for 15 minutes before the addition of ATP, and the response to intracellular calcium influx induced by addition of ATP was monitored by a micro plate reader. The fluorescence ratio of excitations wavelengths of 340 nm and 380 nm was used as the index of intracellular calcium change. The inhibition activities of the test compounds were calculated by comparison with the absence of the test compound (control).

[1] = Table 19, fluorescence ratio F340/F380 vs control
[2] = Table 20, same manner as in Example 19

Compound | IC50 [2] [µM] | further results
O=C1CC(=O)N(c2cccc(-c3nnn[nH]3)c2)c2ccc3c(c2N1)CCCC3.[Na] [Example 2, 5-[3-(1H-Tetrazol-5-yl)phenyl]-8,9,10,11-tetrahydronaphtho[2,1-b][1,4]diazepine-2,4(3H,5H)-dione sodium salt] | – | P2X4 receptor antagonism (in words) (summary statement on Tables 19 and 20): excellent P2X4 receptor antagonism
O=C1CC(=O)N(c2cccc(O)c2)c2ccc3c(c2N1)CCCC3 [Example 3, 5-(3-Hydroxyphenyl)-8,9,10,11-tetrahydronaphtho[2,1-b][1,4]diazepine-2,4(3H,5H)-dione] | – | IC50 [1]: 3.9 µM
O=C1CC(=O)N(c2cccc(-c3nnn[nH]3)c2)c2ccc3c(c2N1)CCC3 [Example 5, 5-[3-(1H-Tetrazol-5-yl)phenyl]-5,8,9,10-tetrahydroindeno[5,4-b][1,4]diazepine-2,4(1H,3H)-dione sodium salt] | – | IC50 [1]: 0.97 µM
Nc1cccc(N2C(=O)CC(=O)Nc3c2ccc2c3CCCC2)c1 [Example 8, 5-(3-Aminophenyl)-1,5,8,9,10,11-hexahydronaphtho[1,2-b][1,4]diazepine-2,4-dione hydrochloride] | 4 | –
Nc1ccc(N2C(=O)CC(=O)Nc3c2ccc2c3CCCC2)cc1 [Example 10, 5-(4-Aminophenyl)-1,5,8,9,10,11-hexahydronaphtho[1,2-b][1,4]diazepine-2,4-dione] | 6.1 | –
CNc1ccc(N2C(=O)CC(=O)Nc3c2ccc2c3CCCC2)cc1 [Example 11, 5-(4-Methylaminophenyl)-1,5,8,9,10,11-hexahydronaphtho[1,2-b][1,4]diazepine-2,4-dione hydrochloride] | 3.3 | –
COc1ccc(N2C(=O)CC(=O)Nc3c2ccc2c3CCCC2)cc1 [Example 13, 5-(4-Methoxyphenyl)-1,5,8,9,10,11-hexahydronaphtho[1,2-b][1,4]diazepine-2,4-dione] | 6.9 | –
O=C1CC(=O)N(c2ccc(O)cc2)c2ccc3c(c2N1)CCCC3 [Example 14, 5-(4-Hydroxyphenyl)-1,5,8,9,10,11-hexahydronaphtho[1,2-b][1,4]diazepine-2,4-dione] | 3.8 | –
